“And” between values parts separate entries of the source, which are not always exact repeats. Equal entries are not always repeated.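 Five concentrations, 48 hours, 96-well plates. The concentration for 50% growth inhibition is given as GI50. At the TGI there is no net growth.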
Assays:
Assay in all cases: NCI tumour cell line growth inhibition, 48 h
MDA-N = tested on: MDA-N
DMS 114 small cell lung = tested on: DMS 114 small cell lung
DMS 273 small cell lung = tested on: DMS 273 small cell lung
HOP-18 NSCLC = tested on: HOP-18 NSCLC
KM20L2 colon = tested on: KM20L2 colon
LXFL 529 NSCLC = tested on: LXFL 529 NSCLC
SNB-78 CNS = tested on: SNB-78 CNS
RXF-631 renal = tested on: RXF-631 renal
P388 leukemia = tested on: P388 leukemia
P388/ADR leukemia = tested on: P388/ADR leukemia
XF 498 CNS = tested on: XF 498 CNS

| SMILES | TGI (MDA-N) | TGI (DMS 114 small cell lung) | TGI (DMS 273 small cell lung) | TGI (HOP-18 NSCLC) | TGI (KM20L2 colon) | TGI (LXFL 529 NSCLC) | TGI (SNB-78 CNS) | TGI (RXF-631 renal) | TGI (XF 498 CNS) | also measured |
| --- | --- | --- | --- | --- | --- | --- | --- | --- | --- | --- |
| O=C(O)C1=C/C(=C(/c2ccccc2)c2cc(C(=O)O)c(O)c3ccccc23)c2ccccc2C1=O | > 100 µM | – | – | – | – | – | – | – | – | – |
| COC(=O)C(=O)Cc1nc2ccccc2s1 | – | > 100 µM | > 100 µM | > 100 µM | > 100 µM | > 100 µM | > 100 µM | – | – | – |
| CCCCC1=CSC(c2ccccc2)=C(c2ccccc2)S1 | – | > 100 µM | > 100 µM | > 100 µM | > 100 µM | > 100 µM | > 100 µM | > 100 µM | – | – |
| COC1=C(N)C(=O)c2nc(-c3nc(C(=O)O)c(C)c(-c4ccc(OC)c(OC)c4O)c3N)ccc2C1=O | 0.0269 µM and 0.0153 µM | 0.0118 µM | 0.0194 µM | 0.0395 µM | 1.12 µM and 0.184 µM | 0.0206 µM | 0.0324 µM and 0.0996 µM | – | 0.0179 µM | GI50 (MDA-N): 0.0117 µM; TGI (P388 leukemia): 0.473 µM; TGI (P388/ADR leukemia): 0.402 µM |
| Cc1ccc(CNc2ccc(Br)cc2)cc1 | > 100 µM | – | – | – | – | – | – | – | – | – |
| O=C1c2ccccc2C(=O)c2cc3c(cc21)CS(=O)C3 | – | > 100 µM | > 100 µM | > 100 µM | > 100 µM | > 100 µM | – | – | – | – |
| Cn1c(CBr)nc2c1C(=O)c1nc(CBr)[nH]c(=O)c1C2=O | – | > 100 µM | – | > 100 µM | > 100 µM | > 100 µM | – | > 100 µM | – | – |
| COC1C2C[C@@H](O)CCC2C(C(=O)OCCl)C[C@H]1O (stereo partly specified) | – | > 100 µM | > 100 µM | > 100 µM | > 100 µM | > 100 µM | > 100 µM | > 100 µM | – | – |
| COC(=O)CCSC(=O)Nc1ccc(N=Nc2ccccc2)cc1 | – | > 100 µM | > 100 µM | > 100 µM | 76.3 µM | > 100 µM | > 100 µM | > 100 µM | > 100 µM | – |
| COc1cccc2c1-c1nc(N)c3c(OC)cccc3c1C2=O | > 100 µM | – | – | – | – | – | – | – | – | – |
| O=C1CC2OCC=C3CN4CCC56c7ccccc7N1C5C2C3CC46O (stereo unspecified) | > 100 µM | – | – | – | – | – | – | – | – | – |
| CCCn1c2c(c3ccccc3c1=O)C(=O)c1ccccc1-2 | > 100 µM | – | – | – | – | – | – | – | – | – |
| CN=c1ss/c(=N\C(=S)N(C)C)n1C | – | > 100 µM | > 100 µM | > 100 µM | > 100 µM | > 100 µM | > 100 µM | – | > 100 µM | – |
| CC(=O)OCC1OC(n2c(=S)n(-c3ccc([N+](=O)[O-])cc3)c(=O)c3ccccc32)C(OC(C)=O)C(OC(C)=O)C1OC(C)=O (stereo unspecified) | 82.3 µM | > 100 µM and 53.8 µM | 57.3 µM | 64.4 µM | > 100 µM and 87.7 µM | 39.9 µM and 50.6 µM | > 100 µM and 74.5 µM | 57.7 µM and 51 µM | – | GI50 (DMS 114 small cell lung): 23.7 µM and 18.1 µM; GI50 (LXFL 529 NSCLC): 11.3 µM and 17.4 µM; GI50 (SNB-78 CNS): 34.8 µM and 24.1 µM |
| NC1NC=NC2C1N=CN2C1OC(CO)C2[O][Sn][O]C21 (stereo unspecified) | – | > 100 µM | > 100 µM | > 100 µM | > 100 µM | > 100 µM | > 100 µM | – | 52.7 µM | GI50 (DMS 114 small cell lung): > 100 µM; GI50 (DMS 273 small cell lung): > 100 µM; GI50 (HOP-18 NSCLC): > 100 µM; GI50 (KM20L2 colon): > 100 µM; GI50 (LXFL 529 NSCLC): > 100 µM; GI50 (SNB-78 CNS): > 100 µM; GI50 (XF 498 CNS): 1.15 µM |
| CCOC(=O)C(C)(NC(=O)c1ccc(NCc2ccc3nc(NC(=O)c4ccccc4)nc(NC(=O)c4ccccc4)c3c2)cc1)C(=O)OCC | – | 42 µM | 27.5 µM | > 100 µM | 85.3 µM | – | 45.4 µM | 51 µM | – | – |
| O=[N+]([O-])c1ccc(C2=Nc3ccccc3S(=O)C(c3ccccc3)C2)cc1 (stereo unspecified) | – | 42.8 µM | 52.5 µM | > 100 µM | 57.8 µM | 26.7 µM | – | 40.1 µM | 47.9 µM | – |
| COc1cc(C2c3cc4c(cc3[C@@H](NCCN(C)C)C3COC(=O)[C@H]23)OCO4)cc(OC)c1O (stereo partly specified) | – | 0.533 µM and 2.11 µM | 0.803 µM and 1.36 µM | 2.63 µM and 6.98 µM | 2.16 µM and 3.62 µM | 6.9 µM and 13.2 µM | 68.3 µM and 77.8 µM | – | 0.978 µM and 2.02 µM | GI50 (DMS 114 small cell lung): 0.0491 µM and 0.347 µM; GI50 (DMS 273 small cell lung): 0.0137 µM and 0.0329 µM; GI50 (HOP-18 NSCLC): 0.108 µM and 0.428 µM; GI50 (KM20L2 colon): 0.425 µM and 1.14 µM; GI50 (SNB-78 CNS): 1.24 µM and 3.25 µM |
